# From the supplement of paper PMC10307832
# Legend:
# Test in all cases: relative viability (nuclei count vs DMSO), 5 days (fraction); higher = more cells survive
# Carfilzomib + Foretinib = compound: CC(C)C[C@H](NC(=O)[C@H](CCc1ccccc1)NC(=O)CN1CCOCC1)C(=O)N[C@@H](Cc1ccccc1)C(=O)N[C@@H](CC(C)C)C(=O)[C@@]1(C)CO1 [Carfilzomib] + COc1cc2c(Oc3ccc(NC(=O)C4(C(=O)Nc5ccc(F)cc5)CC4)cc3F)ccnc2cc1OCCCN1CCOCC1 [Foretinib] (partner 0.25 µM)
# Procedure, shortened: (§1)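 Values are medians from duplicate plates. Each reflects relative viability, defined as the nuclei count of treated wells over that of vehicle wells. Lung cancer cell lines in 1536-well plates were pin-tool dosed one day after seeding with one drug alone or with a fixed anchor-drug dose plus five library-drug doses (not always all listed) in √10 steps, then fixed, stained and imaged at 4× after 5 days.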
# Carfilzomib + Alpelisib = compound: CC(C)C[C@H](NC(=O)[C@H](CCc1ccccc1)NC(=O)CN1CCOCC1)C(=O)N[C@@H](Cc1ccccc1)C(=O)N[C@@H](CC(C)C)C(=O)[C@@]1(C)CO1 [Carfilzomib] + Cc1nc(NC(=O)N2CCC[C@H]2C(N)=O)sc1-c1ccnc(C(C)(C)C(F)(F)F)c1 [Alpelisib] (partner 2 µM)
# Procedure, shortened: as §1
# Carfilzomib + Olaparib = compound: CC(C)C[C@H](NC(=O)[C@H](CCc1ccccc1)NC(=O)CN1CCOCC1)C(=O)N[C@@H](Cc1ccccc1)C(=O)N[C@@H](CC(C)C)C(=O)[C@@]1(C)CO1 [Carfilzomib] + O=C(c1cc(Cc2n[nH]c(=O)c3ccccc23)ccc1F)N1CCN(C(=O)C2CC2)CC1 [Olaparib] (partner 8 µM)
# Procedure, shortened: as §1
# Crizotinib + Decitabine = compound: C[C@@H](Oc1cc(-c2cnn(C3CCNCC3)c2)cnc1N)c1c(Cl)ccc(F)c1Cl [Crizotinib] + Nc1ncn([C@H]2C[C@H](O)[C@@H](CO)O2)c(=O)n1 [Decitabine] (partner 2 µM)
# Procedure, shortened: as §1
# Olaparib + Foretinib = compound: O=C(c1cc(Cc2n[nH]c(=O)c3ccccc23)ccc1F)N1CCN(C(=O)C2CC2)CC1 [Olaparib] + COc1cc2c(Oc3ccc(NC(=O)C4(C(=O)Nc5ccc(F)cc5)CC4)cc3F)ccnc2cc1OCCCN1CCOCC1 [Foretinib] (partner 0.25 µM)
# Procedure, shortened: as §1
cell line,measurement,setting,value
NCI-H1793,relative viability,Carfilzomib + Foretinib; first compound 0.003162 µM,0.664
same,relative viability,Carfilzomib + Foretinib; first compound 0.01 µM,0.823
same,relative viability,Carfilzomib + Foretinib; first compound 0.03162 µM,0.707
same,relative viability,Carfilzomib + Foretinib; first compound 0.1 µM,0.393
same,relative viability,Carfilzomib + Alpelisib; first compound 0.003162 µM,0.767
same,relative viability,Carfilzomib + Alpelisib; first compound 0.01 µM,0.804
same,relative viability,Carfilzomib + Alpelisib; first compound 0.03162 µM,0.68
same,relative viability,Carfilzomib + Alpelisib; first compound 0.1 µM,0.356
same,relative viability,Carfilzomib + Olaparib; first compound 0.001 µM,0.811
same,relative viability,Carfilzomib + Olaparib; first compound 0.003162 µM,1.05
same,relative viability,Carfilzomib + Olaparib; first compound 0.01 µM,0.924
same,relative viability,Carfilzomib + Olaparib; first compound 0.03162 µM,0.732
same,relative viability,Carfilzomib + Olaparib; first compound 0.1 µM,0.223
same,relative viability,Crizotinib + Decitabine; first compound 0.03162 µM,0.522
same,relative viability,Crizotinib + Decitabine; first compound 0.1 µM,0.53
same,relative viability,Crizotinib + Decitabine; first compound 1 µM,0.555
same,relative viability,Olaparib + Foretinib; first compound 0.08 µM,0.684
same,relative viability,Olaparib + Foretinib; first compound 0.253 µM,0.624
same,relative viability,Olaparib + Foretinib; first compound 2.53 µM,0.648
same,relative viability,Olaparib + Foretinib; first compound 8 µM,0.706
